# From patent publication US9375002B2, “5-aminopyrimidine derivatives and use thereof for combating undesired plant growth” (BAYER INTELLECTUAL PROPERTY GMBH, priority 2012, dated 2016)
# How the values were obtained:
# [1] = logp (HCOOH), physicochemical characterization; conditions: for chromatographic logP: HCOOH (formic acid)
# Alopecurus myosuroides = experiment: Pre-emergence herbicidal effect; assay type: in vivo; conditions: 1280 g/ha, visual assessment after 3 weeks
# Description: (§1) 1. Pre-Emergence Herbicidal Effect and Crop Plant Compatibility Seeds of monocotyledonous and dicotyledonous weed plants and crop plants are placed in wood-fiber pots in sandy loam and covered with soil. The inventive compounds, formulated in the form of wettable powders (WP) or as emulsion concentrates (EC), are then applied to the surface of the covering soil as an aqueous suspension or emulsion at a water application rate of 600 to 800 I/ha (converted) with addition of 0.2% wetting agent. After the treatment, the pots are placed in a greenhouse and kept under good growth conditions for the test plants. The damage to the test plants is assessed visually after a test period of 3 weeks by comparison with untreated controls (herbicidal activity in percent (%): 100% action=the plants have died, 0% action=like control plants). ABUTH: Abutilon theophrasti ALOMY: Alopecurus myosuroides
# Amaranthus retroflexus [2] = experiment: Pre-emergence herbicidal effect; assay type: in vivo; conditions: 1280 g/ha, visual assessment after 3 weeks
# Description: as §1, with “AMARE: Amaranthus retroflexus ECHCG: Echinochloa crus-galli” for “ABUTH: Abutilon theophrasti ALOMY: Alopecurus myosuroides”
# Lolium multiflorum = experiment: Pre-emergence herbicidal effect; assay type: in vivo; conditions: 1280 g/ha, visual assessment after 3 weeks
# Description: as §1, with “LOLMU: Lolium multiflorum MATIN: Matricaria inodora” for “ABUTH: Abutilon theophrasti ALOMY: Alopecurus myosuroides”
# Matricaria inodora = experiment: Pre-emergence herbicidal effect; assay type: in vivo; conditions: 1280 g/ha, visual assessment after 3 weeks
# Description: as §1, with “LOLMU: Lolium multiflorum MATIN: Matricaria inodora” for “ABUTH: Abutilon theophrasti ALOMY: Alopecurus myosuroides”
# Stellaria media = experiment: Pre-emergence herbicidal effect; assay type: in vivo; conditions: 1280 g/ha, visual assessment after 3 weeks
# Description: as §1, with “STEME: Stellaria media VERPE: Veronica persica” for “ABUTH: Abutilon theophrasti ALOMY: Alopecurus myosuroides”
# Veronica persica [3] = experiment: Pre-emergence herbicidal effect; assay type: in vivo; conditions: 1280 g/ha, visual assessment after 3 weeks
# Description: as §1, with “STEME: Stellaria media VERPE: Veronica persica” for “ABUTH: Abutilon theophrasti ALOMY: Alopecurus myosuroides”
# Viola tricolor = experiment: Pre-emergence herbicidal effect; assay type: in vivo; conditions: 1280 g/ha, visual assessment after 3 weeks
# Description: as §1, with “VIOTR: Viola tricolor” for “ABUTH: Abutilon theophrasti ALOMY: Alopecurus myosuroides”
# Echinochloa crus-galli = experiment: Pre-emergence herbicidal effect; assay type: in vivo; conditions: 1280 g/ha, visual assessment after 3 weeks
# Description: as §1, with “AMARE: Amaranthus retroflexus ECHCG: Echinochloa crus-galli” for “ABUTH: Abutilon theophrasti ALOMY: Alopecurus myosuroides”
# Polygonum convolvulus [4] = experiment: Pre-emergence herbicidal effect; assay type: in vivo; conditions: 1280 g/ha, visual assessment after 3 weeks
# Description: as §1, with “POLCO: Polygonum convolvulus SETVI: Setaria viridis” for “ABUTH: Abutilon theophrasti ALOMY: Alopecurus myosuroides”
# Setaria viridis = experiment: Pre-emergence herbicidal effect; assay type: in vivo; conditions: 1280 g/ha, visual assessment after 3 weeks
# Description: as §1, with “POLCO: Polygonum convolvulus SETVI: Setaria viridis” for “ABUTH: Abutilon theophrasti ALOMY: Alopecurus myosuroides”
# Amaranthus retroflexus [5] = experiment: Post-emergence herbicidal effect; assay type: in vivo; conditions: 1280 g/ha, visual rating after about 3 weeks
# Method: (§2) AMARE: Amaranthus retroflexus ECHCG: Echinochloa crus-galli 2. Post-Emergence Herbicidal Effect and Crop Plant Compatibility Seeds of monocotyledonous and dicotyledonous weed and crop plants are placed in sandy loam in wood-fiber pots, covered with soil and cultivated in a greenhouse under good growth conditions. 2 to 3 weeks after sowing, the test plants are treated at the one-leaf stage. The compounds according to the invention, formulated in the form of wettable powders (WP) or as emulsion concentrates (EC), are then sprayed as aqueous suspension or emulsion at a water application rate of 600 to 800 I/ha (converted) with the addition of 0.2% of wetting agent onto the green parts of the plants. After the test plants have been kept in the greenhouse under optimum growth conditions for about 3 weeks, the activity of the preparations is rated visually in comparison to untreated controls (herbicidal activity in percent (%): 100% activity=the plants have died, 0% activity=like control plants).
# Abutilon theophrasti = experiment: Post-emergence herbicidal effect; assay type: in vivo; conditions: 1280 g/ha, visual rating after about 3 weeks
# Method: as §2, with “ABUTH: Abutilon theophrasti ALOMY: Alopecurus myosuroides” for “AMARE: Amaranthus retroflexus ECHCG: Echinochloa crus-galli”
# Polygonum convolvulus [6] = experiment: Post-emergence herbicidal effect; assay type: in vivo; conditions: 1280 g/ha, visual rating after about 3 weeks
# Method: as §2, with “POLCO: Polygonum convolvulus SETVI: Setaria viridis” for “AMARE: Amaranthus retroflexus ECHCG: Echinochloa crus-galli”
# Veronica persica [7] = experiment: Post-emergence herbicidal effect; assay type: in vivo; conditions: 1280 g/ha, visual rating after about 3 weeks
# Method: as §2, with “STEME: Stellaria media VERPE: Veronica persica” for “AMARE: Amaranthus retroflexus ECHCG: Echinochloa crus-galli”
structure (smiles),measurement,setting,value
Cc1ccc2c(c1)[C@H](Nc1cnc(C#N)nc1)[C@@H](C)C2 [compound 76],logp (HCOOH),[1],"wax-like; logp (HCOOH): 3.17; 1H-NMR (CDCl3, 400 MHZ, δ in ppm): 1.25 (d, 3H,"
Cc1cc(C)c2c(c1)C(Nc1cnc(S(C)(=O)=O)nc1)CCO2 (racemic) [compound 62],logp (HCOOH),[1],"wax-like; logp (HCOOH): 4.06; 1H-NMR (CDCl3, 400 MHZ, δ in ppm): 2.10-2.35 (m,"
"FC(F)(F)c1ncc(N[C@@H]2CCc3ccccc32)cn1 [Ex. 115, N-[(1R)-2,3-Dihydro-1H-inden-1-yl]-2-(trifluoromethyl)pyrimidine-5-amine]",chromatographic logP,[1],3.05
same,melting point,,123.7 °C
Cc1ccc2c(c1)[C@H](Nc1cnc(S(C)(=O)=O)nc1C(=O)NC1CC1)[C@@H](C)C2 [compound 139],herbicidal activity ALOMY,Alopecurus myosuroides,90%
same,herbicidal activity AMARE,Amaranthus retroflexus [2],100%
same,herbicidal activity LOLMU,Lolium multiflorum,100%
same,herbicidal activity MATIN,Matricaria inodora,100%
same,herbicidal activity STEME,Stellaria media,100%
same,herbicidal activity VERPE,Veronica persica [3],100%
same,herbicidal activity VIOTR,Viola tricolor,100%
CS(=O)(=O)c1ncc(N[C@@H]2CCCc3ccccc32)c(C(N)=O)n1 [compound 87],logp (HCOOH),[1],"wax-like; logp (HCOOH): 1.86; 1H-NMR (CDCl3, 400 MHZ, δ in ppm): 1.85 (m, 2H, 2H"
"Cc1ccc2c(c1)[C@H](Nc1cnc(S(C)(=O)=O)nc1C(N)=O)[C@@H](C)C2 [compound 93, 5-{[(1R,2S)-2,6-Dimethyl-2,3-dihydro-1H-inden-1-yl]amino}-2-(methylsulfonyl)pyrimidine-4-carboxamide]",herbicidal activity ALOMY,Alopecurus myosuroides,90%
same,herbicidal activity AMARE,Amaranthus retroflexus [2],100%
same,herbicidal activity ECHCG,Echinochloa crus-galli,100%
same,herbicidal activity LOLMU,Lolium multiflorum,90%
same,herbicidal activity MATIN,Matricaria inodora,100%
same,herbicidal activity POLCO,Polygonum convolvulus [4],100%
same,herbicidal activity SETVI,Setaria viridis,90%
same,herbicidal activity STEME,Stellaria media,100%
same,herbicidal activity VERPE,Veronica persica [3],100%
same,herbicidal activity VIOTR,Viola tricolor,100%
same,herbicidal activity AMARE,Amaranthus retroflexus [5],80%
same,herbicidal activity ABUTH,Abutilon theophrasti,80%
same,chromatographic logP,[1],2.21
CCc1ccc2c(c1)C(Nc1cnc(C(F)(F)F)nc1)CCO2 (racemic) [compound 70],logp (HCOOH),[1],"wax-like; logp (HCOOH): 3.41; 1H-NMR (CDCl3, 400 MHZ, δ in ppm): 1.15 (t, 3H,"
"CCc1ccc2c(c1)C(Nc1cnc(C#N)nc1)CCO2 (centres unmarked) [Ex. 64, 5-[(6-Ethyl-3,4-dihydro-2H-chromen-4-yl)amino]pyrimidine-2-carbonitrile]",chromatographic logP,[1],2.8
Cc1ccc2c(c1)[C@H](Nc1cnc(S(C)(=O)=O)nc1C#N)[C@@H](C)C2 [compound 108],logp (HCOOH),[1],"solid; logp (HCOOH): 3.29; 1H-NMR (CDCl3, 400 MHZ, δ in ppm): 1.25 (d, 3H, CH3);"
CCc1ccc2c(c1)C(Nc1cnc(S(C)(=O)=O)nc1C#N)CCO2 (racemic) [compound 66],herbicidal activity AMARE,Amaranthus retroflexus [2],100%
same,herbicidal activity MATIN,Matricaria inodora,90%
same,herbicidal activity POLCO,Polygonum convolvulus [4],90%
same,herbicidal activity STEME,Stellaria media,100%
same,herbicidal activity VERPE,Veronica persica [3],100%
same,herbicidal activity VIOTR,Viola tricolor,100%
same,logp (HCOOH),[1],"wax-like; logp (HCOOH): 2.54; 1H-NMR (CDCl3, 400 MHZ, δ in ppm): 1.15 (t, 3H,"
CS(=O)(=O)c1ncc(N[C@@H]2CCc3ccccc32)cn1 [compound 131],herbicidal activity ECHCG,Echinochloa crus-galli,100%
same,herbicidal activity MATIN,Matricaria inodora,100%
same,herbicidal activity POLCO,Polygonum convolvulus [4],100%
same,herbicidal activity SETVI,Setaria viridis,90%
same,herbicidal activity STEME,Stellaria media,100%
same,herbicidal activity VERPE,Veronica persica [3],100%
same,herbicidal activity AMARE,Amaranthus retroflexus [5],80%
same,herbicidal activity POLCO,Polygonum convolvulus [6],80%
same,herbicidal activity VERPE,Veronica persica [7],80%
